Test results: patent publication US3974165A, “Hypotensive agents” (Bristol-Myers Company, priority 1974, dated 1976)
Converted amounts (≈) assume the structure as drawn.

What was measured:
[1] = test system: adenosine diphosphate (ADP) induced platelet aggregation; assay: In vitro inhibition of ADP induced platelet aggregation (aggregometer method of Born); assay type: cell-based; conditions: Oryctolagus cuniculus; rabbit platelet rich plasma, ADP 0.5 mcg./ml.
Protocol: (§1) The aggregometer method of Born (1), as modified by Mustard et al (2) was used to assess the in vitro activity of the various compounds as to inhibition of adenosine diphosphate (ADP) and collagen induced platelet aggregation. Platelet rich plasma was separated by centrifugation from citrated (3.8 per cent) rabbit blood. ADP in final concentration of 0.5 mcg./ml. or 0.05 ml. of a collagen suspension prepared according to the method described by Evans et al. (3) was used to induce aggregation. The various compounds tested were dissolved in dimethylsulfoxide (DMSO) so that 5 mcl. added to the platelet rich plasma would yield the desired test concentration. Vehicle control trials were done and compared with aggregation induced in platelet rich plasma containing various concentrations of the test compounds. Dose response curves were obtained and Effective Concentration (EC50) values calculated.
(§2) 1. Born, G.V.R J. Physiol., London, 162, 67P (1962).
(§3) 2. mustard, J. F., Hegardt, B. Rowsell, H. C. and MacMillan, R. L., J. Lab. Clin. Med. 64, 548 (1964).
(§4) 3. Evans, G. Marian, M. C., Packham, M. A., Nishizawa, E. E., Mustard, J. F. and Murphy, E. A., J. Exp. Med., 128, 877 (1968).

[2] = test system: collagen induced platelet aggregation; assay: In vitro inhibition of collagen induced platelet aggregation (aggregometer method of Born); assay type: cell-based; conditions: Oryctolagus cuniculus; rabbit platelet rich plasma, 0.05 ml. collagen suspension
Protocol: as §1, §2, §3, §4

[3] = test system: conscious rats; assay: Effect of compounds on mean aortic pressure and heart rate in conscious rats (oral); assay type: in vivo, genetically hypertensive rats; conditions: for Heart Rate / mean aortic pressure / Heart Rate % Change / Aortic Pressure % Change: 50 mg/kg po; for Aortic Pressure % Change: - denotes a decrease in b.p.
Protocol: The blood pressure of unanesthetized rats and dogs was measured directly by means of a transducer attached to an intra-arterial cannula and in anesthetized dogs by a mercury manometer attached to a carotid cannula.
The compounds of the instant invention were tested as the hydrochloride salts by the above method in genetically hypertensive rats in doses of 50 mg./kg. orally.
Compounds were studied by oral administration in conscious rats for their effects on aortic pressure and cardiac rate.

[4] = as compared to compound 1; Jen et al, J. Med. Chem. 16, 633 (1973); cited from earlier work
[5] = oral administration, conscious rats

Work on Cc1cccc2c1CC1CC(=O)NC1=N2 (centres unmarked) [drawing 4] yielded an EC50 [1] of 1.5 µg/mL (≈ 7.49 µM) and an EC50 [2] of 0.3 µg/mL (≈ 1.5 µM).

In the case of O=C1CC2Cc3ccccc3N=C2N1 (centres unmarked) [drawing 3], the EC50 [1] is reported as 22 µg/mL (≈ 118 µM) and the EC50 [2] is reported as 27 µg/mL (≈ 145 µM).

With O=C1CC2Cc3ccccc3N=C2N1 (centres unmarked) [BL-4369] the “Heart Rate” value ([3]; N=3, 0 min (baseline)) was 350±25 Beats/Min, the mean aortic pressure ([3]; N=3, 0 min (baseline)) was 114±2 mmHg and the “Heart Rate” value ([3]; N=3, 30 min) was 420±19 Beats/Min. The “Heart Rate % Change” value ([3]; N=3, 30 min) was 21±9%, the mean aortic pressure ([3]; N=3, 30 min) was 91±6 mmHg and the “Aortic Pressure % Change” value ([3]; N=3, 30 min) was -20±6%. The “Heart Rate” value ([3]; N=3, 90 min) was 414±26 Beats/Min, the “Heart Rate % Change” value ([3]; N=3, 90 min) was 19±9% and the mean aortic pressure ([3]; N=3, 90 min) was 110±3 mmHg. For the same compound, the “Aortic Pressure % Change” value ([3]; N=3, 90 min) was -3±4%, the “Heart Rate” value ([3]; N=3, 150 min) was 370±31 Beats/Min and the “Heart Rate % Change” value ([3]; N=3, 150 min) was 6±8%. The mean aortic pressure ([3]; N=3, 150 min) was 101±3 mmHg, the “Aortic Pressure % Change” value ([3]; N=3, 150 min) was -11±2% and the “Heart Rate” value ([3]; N=3, 300 min) was 382±25 Beats/Min. The “Heart Rate % Change” value ([3]; N=3, 300 min) was 10±7% and the mean aortic pressure ([3]; N=3, 300 min) was 109±8 mmHg.

In the case of c1ccc2c(c1)CC1CCNC1=N2 (centres unmarked) [compound 2], the “antihypertensive activity (in words)” value [4] is listed as “low degree of antihypertensive activity”.

With Cc1cccc2c1CC1CC(=O)NC1=N2 (centres unmarked) [BL-4412] the “Heart Rate” value ([3]; N=3, 0 min (baseline)) was 352±21 Beats/Min, the mean aortic pressure ([3]; N=3, 0 min (baseline)) was 126±2 mmHg and the “Heart Rate” value ([3]; N=3, 30 min) was 464±24 Beats/Min. For the same compound, the “Heart Rate % Change” value ([3]; N=3, 30 min) was 34±15%, the mean aortic pressure ([3]; N=3, 30 min) was 86±1 mmHg and the “Aortic Pressure % Change” value ([3]; N=3, 30 min) was -32%. For the same compound, the “Heart Rate” value ([3]; N=3, 90 min) was 432±12 Beats/Min, the “Heart Rate % Change” value ([3]; N=3, 90 min) was 24±10% and the mean aortic pressure ([3]; N=3, 90 min) was 86±2 mmHg. The “Aortic Pressure % Change” value ([3]; N=3, 90 min) was -31.2%, the “Heart Rate” value ([3]; N=3, 150 min) was 422±12 Beats/Min and the “Heart Rate % Change” value ([3]; N=3, 150 min) was 21±11%. For the same compound, the mean aortic pressure ([3]; N=3, 150 min) was 89±4 mmHg, the “Aortic Pressure % Change” value ([3]; N=3, 150 min) was -29% and the “Heart Rate” value ([3]; N=3, 300 min) was 422±19 Beats/Min. For the same compound, the “Heart Rate % Change” value ([3]; N=3, 300 min) was 1±12%, the “Aortic Pressure % Change” value ([3]; N=3, 300 min) was -25% and the “effect on aortic pressure (in words)” value [3, 5] was “appreciable fall in aortic pressure”. The “effect on heart rate (in words)” value [3, 5] was “not out of proportion to the fall in aortic pressure”.
